Measurements as given in ChEMBL document CHEMBL3046635, “Synthesis and Herbicidal Activity of New Pyrazole-4-carboxamide Derivatives” (J Pestic Sci, 2004).
The source made the active and inactive calls. Unless noted, the rule behind the calls is not given here.

Key:
Lindernia procumbens [1] = assay: Pre-emergence herbicidal activity against Lindernia procumbens at 500 g a.i/ha measured after 14 days; format: functional, organism-based
[2] = test system: Schoenoplectiella juncoides; assay: Pre-emergence herbicidal activity against Schoenoplectiella juncoides at 100 g a.i/ha measured after 14 days; format: functional, organism-based
Eleocharis acicularis [3] = assay: Pre-emergence herbicidal activity against Eleocharis acicularis assessed as bleaching of stem/leaf parts; format: functional, organism-based
Rotala indica [4] = assay: Pre-emergence herbicidal activity against Rotala indica at 100 g a.i/ha measured after 14 days; format: functional, organism-based
Rotala indica [5] = assay: Pre-emergence herbicidal activity against Rotala indica assessed as bleaching of stem/leaf parts; format: functional, organism-based
[6] = test system: Schoenoplectiella juncoides; assay: Post-emergence herbicidal activity against Schoenoplectiella juncoides assessed as bleaching of stem/leaf parts; format: functional, organism-based; also: test concentration or dose not given here
Elatine triandra [7] = assay: Pre-emergence herbicidal activity against Elatine triandra at 500 g a.i/ha measured after 14 days; format: functional, organism-based
Cyperus difformis [8] = assay: Pre-emergence herbicidal activity against Cyperus difformis at 500 g a.i/ha measured after 14 days; format: functional, organism-based
Elatine triandra [9] = assay: Post-emergence herbicidal activity against Elatine triandra assessed as bleaching of stem/leaf parts; format: functional, organism-based; also: test concentration or dose not given here
Ammannia multiflora [10] = assay: Pre-emergence herbicidal activity against Ammannia multiflora at 100 g a.i/ha measured after 14 days; format: functional, organism-based
Echinochloa oryzicola [11] = assay: Post-emergence herbicidal activity against Echinochloa oryzicola assessed as bleaching of stem/leaf parts; format: functional, organism-based; also: test concentration or dose not given here
Lindernia procumbens [12] = assay: Pre-emergence herbicidal activity against Lindernia procumbens assessed as bleaching of stem/leaf parts; format: functional, organism-based
Lindernia procumbens [13] = assay: Pre-emergence herbicidal activity against Lindernia procumbens at 100 g a.i/ha measured after 14 days; format: functional, organism-based
Pontederia vaginalis [14] = assay: Pre-emergence herbicidal activity against Monochoria vaginalis at 100 g a.i/ha measured after 14 days; format: functional, organism-based
Pontederia vaginalis [15] = assay: Pre-emergence herbicidal activity against Monochoria vaginalis assessed as bleaching of stem/leaf parts; format: functional, organism-based
Cyperus difformis [16] = assay: Pre-emergence herbicidal activity against Cyperus difformis at 100 g a.i/ha measured after 14 days; format: functional, organism-based
Ammannia multiflora [17] = assay: Pre-emergence herbicidal activity against Ammannia multiflora at 500 g a.i/ha measured after 14 days; format: functional, organism-based
Pontederia vaginalis [18] = assay: Post-emergence herbicidal activity against Monochoria vaginalis assessed as bleaching of stem/leaf parts; format: functional, organism-based; also: test concentration or dose not given here
Echinochloa oryzicola [19] = assay: Pre-emergence herbicidal activity against Echinochloa oryzicola at 100 g a.i/ha measured after 14 days; format: functional, organism-based
[20] = test system: Schoenoplectiella juncoides; assay: Pre-emergence herbicidal activity against Schoenoplectiella juncoides assessed as bleaching of stem/leaf parts; format: functional, organism-based
Pontederia vaginalis [21] = assay: Pre-emergence herbicidal activity against Monochoria vaginalis at 500 g a.i/ha measured after 14 days; format: functional, organism-based
Oryza sativa [22] = assay: Phytotoxicity against Oryza sativa cv. Koshihikari (rice) at 500 g a.i/ha measured after 14 days; format: organism-based; details: in vivo, 336 h
Cyperus difformis [23] = assay: Post-emergence herbicidal activity against Cyperus difformis assessed as bleaching of stem/leaf parts; format: functional, organism-based; also: test concentration or dose not given here
Rotala indica [24] = assay: Post-emergence herbicidal activity against Rotala indica assessed as bleaching of stem/leaf parts; format: functional, organism-based; also: test concentration or dose not given here
Rotala indica [25] = assay: Pre-emergence herbicidal activity against Rotala indica at 500 g a.i/ha measured after 14 days; format: functional, organism-based
Eleocharis acicularis [26] = assay: Pre-emergence herbicidal activity against Eleocharis acicularis at 500 g a.i/ha measured after 14 days; format: functional, organism-based
[27] = test system: Schoenoplectiella juncoides; assay: Pre-emergence herbicidal activity against Schoenoplectiella juncoides at 500 g a.i/ha measured after 14 days; format: functional, organism-based
Echinochloa oryzicola [28] = assay: Pre-emergence herbicidal activity against Echinochloa oryzicola assessed as bleaching of stem/leaf parts; format: functional, organism-based
Lindernia procumbens [29] = assay: Post-emergence herbicidal activity against Lindernia procumbens assessed as bleaching of stem/leaf parts; format: functional, organism-based; also: test concentration or dose not given here
Ammannia multiflora [30] = assay: Post-emergence herbicidal activity against Ammannia multiflora assessed as bleaching of stem/leaf parts; format: functional, organism-based; also: test concentration or dose not given here
Eleocharis acicularis [31] = assay: Post-emergence herbicidal activity against Eleocharis acicularis assessed as bleaching of stem/leaf parts; format: functional, organism-based; also: test concentration or dose not given here
Echinochloa oryzicola [32] = assay: Pre-emergence herbicidal activity against Echinochloa oryzicola at 500 g a.i/ha measured after 14 days; format: functional, organism-based
Elatine triandra [33] = assay: Pre-emergence herbicidal activity against Elatine triandra at 100 g a.i/ha measured after 14 days; format: functional, organism-based
Cyperus difformis [34] = assay: Pre-emergence herbicidal activity against Cyperus difformis assessed as bleaching of stem/leaf parts; format: functional, organism-based
Eleocharis acicularis [35] = assay: Pre-emergence herbicidal activity against Eleocharis acicularis at 100 g a.i/ha measured after 14 days; format: functional, organism-based
Ammannia multiflora [36] = assay: Pre-emergence herbicidal activity against Ammannia multiflora assessed as bleaching of stem/leaf parts; format: functional, organism-based
Oryza sativa [37] = assay: Phytotoxicity against Oryza sativa cv. Koshihikari (rice) at 100 g a.i/ha measured after 14 days; format: organism-based; details: in vivo, 336 h
Elatine triandra [38] = assay: Pre-emergence herbicidal activity against Elatine triandra assessed as bleaching of stem/leaf parts; format: functional, organism-based

Row | SMILES | Activity (Lindernia procumbens [1]) | Activity [2] | Activity (Eleocharis acicularis [3]) | Activity (Rotala indica [4]) | Activity (Rotala indica [5]) | Activity [6] | Activity (Elatine triandra [7]) | Activity (Cyperus difformis [8]) | Activity (Elatine triandra [9]) | Activity (Ammannia multiflora [10]) | Activity (Echinochloa oryzicola [11]) | Activity (Lindernia procumbens [12]) | Activity (Lindernia procumbens [13]) | Activity (Pontederia vaginalis [14]) | Activity (Pontederia vaginalis [15]) | Activity (Cyperus difformis [16]) | Activity (Ammannia multiflora [17]) | Activity (Pontederia vaginalis [18]) | Activity (Echinochloa oryzicola [19]) | Activity [20] | further results
1 | Cn1cc(C(=O)Nc2ccc(F)cc2F)c(OCc2cccc(C(F)(F)F)c2)n1 | Active | inactive | Active | Active | Active | Active | Active | Active | Active | Active | Active | Active | Active | Active | Active | Active | Active | Active | inactive | Active | Activity (Pontederia vaginalis [21]): Active; Activity (Oryza sativa [22]): Toxic; Activity (Cyperus difformis [23]): Active; Activity (Rotala indica [24]): Active; Activity (Rotala indica [25]): Active; Activity (Eleocharis acicularis [26]): Active; Activity [27]: Active; Activity (Echinochloa oryzicola [28]): Active; Activity (Lindernia procumbens [29]): Active; Activity (Ammannia multiflora [30]): Active; Activity (Eleocharis acicularis [31]): Active; Activity (Echinochloa oryzicola [32]): inactive; Activity (Elatine triandra [33]): Active; Activity (Cyperus difformis [34]): Active; Activity (Eleocharis acicularis [35]): Active; Activity (Ammannia multiflora [36]): Active; Activity (Oryza sativa [37]): Non-toxic; Activity (Elatine triandra [38]): Active
2 | CCCONC(=O)c1cn(C)nc1OCc1cccc(C(F)(F)F)c1 | Active | Active | Active | Active | Active | Active | Active | Active | Active | Active | Active | Active | Active | Active | Active | Active | Active | Active | Active | Active | Activity (Pontederia vaginalis [21]): Active; Activity (Oryza sativa [22]): Toxic; Activity (Cyperus difformis [23]): Active; Activity (Rotala indica [24]): Active; Activity (Rotala indica [25]): Active; Activity (Eleocharis acicularis [26]): Active; Activity [27]: Active; Activity (Echinochloa oryzicola [28]): Active; Activity (Lindernia procumbens [29]): Active; Activity (Ammannia multiflora [30]): Active; Activity (Eleocharis acicularis [31]): Active; Activity (Echinochloa oryzicola [32]): Active; Activity (Elatine triandra [33]): Active; Activity (Cyperus difformis [34]): Active; Activity (Eleocharis acicularis [35]): Active; Activity (Ammannia multiflora [36]): Active; Activity (Oryza sativa [37]): Non-toxic; Activity (Elatine triandra [38]): Active
3 | CCCCONC(=O)c1cn(C)nc1OCc1cccc(C(F)(F)F)c1 | Active | Active | Active | Active | Active | Active | Active | Active | Active | Active | Active | Active | Active | Active | Active | Active | Active | Active | Active | Active | Activity (Pontederia vaginalis [21]): Active; Activity (Oryza sativa [22]): Toxic; Activity (Cyperus difformis [23]): Active; Activity (Rotala indica [24]): Active; Activity (Rotala indica [25]): Active; Activity (Eleocharis acicularis [26]): Active; Activity [27]: Active; Activity (Echinochloa oryzicola [28]): Active; Activity (Lindernia procumbens [29]): Active; Activity (Ammannia multiflora [30]): Active; Activity (Eleocharis acicularis [31]): Active; Activity (Echinochloa oryzicola [32]): Active; Activity (Elatine triandra [33]): Active; Activity (Cyperus difformis [34]): Active; Activity (Eleocharis acicularis [35]): Active; Activity (Ammannia multiflora [36]): Active; Activity (Oryza sativa [37]): Non-toxic; Activity (Elatine triandra [38]): Active
